Experiments:
Format in all cases: in vivo
[1] = test system: pigweed (Amaranthus retroflexus); assay: Test B pre-/postemergence plant response; conditions: Postemergence
Method in brief: (§1)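 Response scores were assigned visually after 13 to 15 days in a greenhouse, comparing treated pots with controls on a 0–100 scale where 100 denotes complete control. Preemergence treatments went onto freshly seeded loam/sand soil; postemergence treatments onto plants 2 to 18 cm tall.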

[2] = test system: bermudagrass (Cynodon dactylon); assay: Test B pre-/postemergence plant response; conditions: Postemergence
Method in brief: as §1

[3] = test system: lambsquarters (Chenopodium album); assay: Test B pre-/postemergence plant response; conditions: Postemergence
Method in brief: as §1

[4] = test system: woolly cupgrass (Eriochloa villosa); assay: Test B pre-/postemergence plant response; conditions: Postemergence
Method in brief: as §1

[5] = test system: downy bromegrass (Bromus tectorum); assay: Test B pre-/postemergence plant response; conditions: Postemergence
Method in brief: as §1

[6] = test system: wheat (Triticum aestivum); assay: Test B pre-/postemergence plant response; conditions: Postemergence
Method in brief: as §1

[7] = test system: yellow nutsedge (Cyperus esculentus); assay: Test B pre-/postemergence plant response; conditions: Postemergence
Method in brief: as §1

[8] = test system: Surinam grass (Brachiaria decumbens); assay: Test B pre-/postemergence plant response; conditions: Postemergence
Method in brief: as §1

[9] = test system: ducksalad (Heteranthera limosa); assay: Test B flooded paddy test; conditions: for Plant response rating, Flood, Ducksalad: 250 g ai/ha, flooded paddy test, visual rating on 0 to 100 scale (0 no effect, 100 complete control) after 13 to 15 days; for Plant response rating, Ducksalad: Flood (flooded paddy test), 13 to 15 days; for Ducksalad plant response rating: Flood, 31 g ai/ha, scale 0 to 100 (0 no effect, 100 complete control)
Method in brief: (§2)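 Rice, umbrella sedge, ducksalad and barnyardgrass were grown to the 2-leaf stage, flooded to 3 cm, and compound was applied directly to the paddy water, with that depth kept throughout. After 13 to 15 days in the greenhouse, plants were visually rated against controls on a 0 (no effect) to 100 (complete control) scale.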

[10] = test system: barnyardgrass (Echinochloa crus-galli); assay: Test B flooded paddy test; conditions: for Plant response rating, Flood, Barnyardgrass: 250 g ai/ha, flooded paddy test, visual rating on 0 to 100 scale (0 no effect, 100 complete control) after 13 to 15 days; for Plant response rating, Barnyardgrass: Flood (flooded paddy test), 13 to 15 days; for Barnyardgrass plant response rating: Flood, 31 g ai/ha, scale 0 to 100 (0 no effect, 100 complete control)
Method in brief: as §2

[11] = test system: rice (Oryza sativa); assay: Test B flooded paddy test; conditions: for Plant response rating, Flood, Rice: 250 g ai/ha, flooded paddy test, visual rating on 0 to 100 scale (0 no effect, 100 complete control) after 13 to 15 days; for Plant response rating, Rice: Flood (flooded paddy test), 13 to 15 days; for Rice plant response rating: Flood, 31 g ai/ha, scale 0 to 100 (0 no effect, 100 complete control)
Method in brief: as §2

[12] = test system: umbrella sedge (Cyperus difformis); assay: Test B flooded paddy test; conditions: for Plant response rating, Flood, Sedge, Umbrella: 250 g ai/ha, flooded paddy test, visual rating on 0 to 100 scale (0 no effect, 100 complete control) after 13 to 15 days; for Plant response rating, Sedge, Umbrella: Flood (flooded paddy test), 13 to 15 days; for Sedge, Umbrella plant response rating: Flood, 31 g ai/ha, scale 0 to 100 (0 no effect, 100 complete control)
Method in brief: as §2

[13] = 31 g ai/ha, 0 to 100 scale (0 no effect, 100 complete control)
[14] = 62 g ai/ha, scale 0 to 100 (0 no effect, 100 complete control)
[15] = 250 g ai/ha, scale 0 to 100 (0 no effect, 100 complete control), 13 to 15 days
[16] = 125 g ai/ha, scale 0 to 100 (0 no effect, 100 complete control)
[17] = 125 g ai/ha, scale 0 to 100, 0 is no effect, 100 is complete control
[18] = 62 g ai/ha, scale of 0 to 100 where 0 is no effect and 100 is complete control

CCCn1c(-c2ccsc2)ncc(C(=O)C2=C(O)C3CCC(C3)C2=O)c1=O (stereo not shown) [Compound 227]
Plant response rating, Pigweed [1, 13]: 80
Plant response rating, Pigweed [1, 14]: 90
Plant response rating, Pigweed [1, 15]: 100
Plant response rating, Bermudagrass [2, 13]: 75
Plant response rating, Bermudagrass [2, 14]: 75
Plant response rating, Bermudagrass [2, 16]: 85
Plant response rating, Bermudagrass [2, 15]: 90
Plant response rating, Lambsquarters [3, 13]: 90
Plant response rating, Lambsquarters [3, 14]: 98
Plant response rating, Lambsquarters [3, 16]: 98
Plant response rating, Lambsquarters [3, 15]: 98
Plant response rating, Cupgrass, Woolly [4, 13]: 55
Plant response rating, Cupgrass, Woolly [4, 14]: 75
Plant response rating, Cupgrass, Woolly [4, 16]: 90
Plant response rating, Cupgrass, Woolly [4, 15]: 95
Plant response rating, Bromegrass, Downy [5, 13]: 0
Plant response rating, Bromegrass, Downy [5, 14]: 0
Plant response rating, Bromegrass, Downy [5, 16]: 0
Plant response rating, Bromegrass, Downy [5, 15]: 25
Plant response rating, Wheat [6, 13]: 0
Plant response rating, Wheat [6, 14]: 0
Plant response rating, Wheat [6, 15]: 20
Plant response rating, Nutsedge, Yellow [7, 13]: 10
Plant response rating, Nutsedge, Yellow [7, 14]: 45
Plant response rating, Nutsedge, Yellow [7, 16]: 65
Plant response rating, Nutsedge, Yellow [7, 15]: 65
Plant response rating, Surinam Grass [8, 13]: 55
Plant response rating, Surinam Grass [8, 14]: 70
Plant response rating, Surinam Grass [8, 15]: 95
Plant response rating, Flood, Ducksalad [9]: 80
Plant response rating, Ducksalad [9, 17]: 75
Plant response rating, Flood, Barnyardgrass [10]: 60
Plant response rating, Barnyardgrass [10, 18]: 40
Plant response rating, Barnyardgrass [10, 17]: 50
Barnyardgrass plant response rating [10]: 20
Plant response rating, Flood, Rice [11]: 55
Plant response rating, Rice [11, 18]: 30
Plant response rating, Rice [11, 17]: 45
Rice plant response rating [11]: 20
Plant response rating, Flood, Sedge, Umbrella [12]: 85
Plant response rating, Sedge, Umbrella [12, 18]: 85
Plant response rating, Sedge, Umbrella [12, 17]: 85
Sedge, Umbrella plant response rating [12]: 80

COCCn1c(-c2ccsc2)ncc(C(=O)C2=C(O)C3CCC(C3)C2=O)c1=O (stereo not shown) [Compound 228]
Plant response rating, Pigweed [1, 13]: 98
Plant response rating, Pigweed [1, 14]: 100
Plant response rating, Pigweed [1, 15]: 100
Plant response rating, Bermudagrass [2, 13]: 80
Plant response rating, Bermudagrass [2, 14]: 85
Plant response rating, Bermudagrass [2, 16]: 90
Plant response rating, Bermudagrass [2, 15]: 95
Plant response rating, Lambsquarters [3, 13]: 98
Plant response rating, Lambsquarters [3, 14]: 98
Plant response rating, Lambsquarters [3, 16]: 100
Plant response rating, Lambsquarters [3, 15]: 100
Plant response rating, Cupgrass, Woolly [4, 13]: 75
Plant response rating, Cupgrass, Woolly [4, 14]: 95
Plant response rating, Cupgrass, Woolly [4, 16]: 95
Plant response rating, Cupgrass, Woolly [4, 15]: 98
Plant response rating, Bromegrass, Downy [5, 13]: 5
Plant response rating, Bromegrass, Downy [5, 14]: 5
Plant response rating, Bromegrass, Downy [5, 16]: 10
Plant response rating, Bromegrass, Downy [5, 15]: 10
Plant response rating, Wheat [6, 13]: 0
Plant response rating, Wheat [6, 14]: 5
Plant response rating, Wheat [6, 15]: 35
Plant response rating, Nutsedge, Yellow [7, 13]: 40
Plant response rating, Nutsedge, Yellow [7, 14]: 45
Plant response rating, Nutsedge, Yellow [7, 16]: 60
Plant response rating, Nutsedge, Yellow [7, 15]: 70
Plant response rating, Surinam Grass [8, 13]: 75
Plant response rating, Surinam Grass [8, 14]: 85
Plant response rating, Surinam Grass [8, 15]: 98
Plant response rating, Flood, Ducksalad [9]: 80
Plant response rating, Ducksalad [9, 18]: 50
Plant response rating, Ducksalad [9, 17]: 75
Ducksalad plant response rating [9]: 40
Plant response rating, Flood, Barnyardgrass [10]: 80
Plant response rating, Barnyardgrass [10, 18]: 40
Plant response rating, Barnyardgrass [10, 17]: 75
Barnyardgrass plant response rating [10]: 15
Plant response rating, Flood, Rice [11]: 60
Plant response rating, Rice [11, 18]: 20
Plant response rating, Rice [11, 17]: 35
Rice plant response rating [11]: 0
Plant response rating, Flood, Sedge, Umbrella [12]: 85
Plant response rating, Sedge, Umbrella [12, 18]: 75
Plant response rating, Sedge, Umbrella [12, 17]: 75
Sedge, Umbrella plant response rating [12]: 65

O=C(C1=C(O)C2CCC(C2)C1=O)c1cnc(-c2ccsc2)n(CC2CCCO2)c1=O (stereo not shown) [Compound 229]
Plant response rating, Pigweed [1, 13]: 80
Plant response rating, Pigweed [1, 14]: 95
Plant response rating, Pigweed [1, 15]: 100
Plant response rating, Bermudagrass [2, 13]: 75
Plant response rating, Bermudagrass [2, 14]: 80
Plant response rating, Bermudagrass [2, 16]: 85
Plant response rating, Bermudagrass [2, 15]: 90
Plant response rating, Lambsquarters [3, 13]: 85
Plant response rating, Lambsquarters [3, 14]: 95
Plant response rating, Lambsquarters [3, 16]: 95
Plant response rating, Lambsquarters [3, 15]: 98
Plant response rating, Cupgrass, Woolly [4, 13]: 70
Plant response rating, Cupgrass, Woolly [4, 14]: 75
Plant response rating, Cupgrass, Woolly [4, 16]: 80
Plant response rating, Cupgrass, Woolly [4, 15]: 90
Plant response rating, Bromegrass, Downy [5, 13]: 5
Plant response rating, Bromegrass, Downy [5, 14]: 15
Plant response rating, Bromegrass, Downy [5, 16]: 20
Plant response rating, Bromegrass, Downy [5, 15]: 30
Plant response rating, Wheat [6, 13]: 0
Plant response rating, Wheat [6, 14]: 0
Plant response rating, Wheat [6, 15]: 35
Plant response rating, Nutsedge, Yellow [7, 13]: 0
Plant response rating, Nutsedge, Yellow [7, 14]: 20
Plant response rating, Nutsedge, Yellow [7, 16]: 40
Plant response rating, Nutsedge, Yellow [7, 15]: 55
Plant response rating, Surinam Grass [8, 13]: 65
Plant response rating, Surinam Grass [8, 14]: 70
Plant response rating, Surinam Grass [8, 15]: 90
Plant response rating, Flood, Ducksalad [9]: 40
Plant response rating, Ducksalad [9, 18]: 0
Plant response rating, Ducksalad [9, 17]: 0
Ducksalad plant response rating [9]: 0
Plant response rating, Flood, Barnyardgrass [10]: 30
Plant response rating, Barnyardgrass [10, 18]: 0
Plant response rating, Barnyardgrass [10, 17]: 0
Barnyardgrass plant response rating [10]: 0
Plant response rating, Flood, Rice [11]: 20
Plant response rating, Rice [11, 18]: 0
Plant response rating, Rice [11, 17]: 0
Rice plant response rating [11]: 0
Plant response rating, Flood, Sedge, Umbrella [12]: 70
Plant response rating, Sedge, Umbrella [12, 18]: 0
Plant response rating, Sedge, Umbrella [12, 17]: 50
Sedge, Umbrella plant response rating [12]: 0

COCCn1c(-c2cccc(C)c2)ncc(C(=O)C2=C(O)C3CCC(C3)C2=O)c1=O (stereo not shown) [Compound 233]
Plant response rating, Pigweed [1, 13]: 85
Plant response rating, Pigweed [1, 14]: 98
Plant response rating, Bermudagrass [2, 13]: 95
Plant response rating, Bermudagrass [2, 14]: 95
Plant response rating, Bermudagrass [2, 16]: 100
Plant response rating, Bermudagrass [2, 15]: 100
Plant response rating, Lambsquarters [3, 13]: 98
Plant response rating, Lambsquarters [3, 14]: 98
Plant response rating, Lambsquarters [3, 16]: 100
Plant response rating, Lambsquarters [3, 15]: 100
Plant response rating, Cupgrass, Woolly [4, 13]: 80
Plant response rating, Cupgrass, Woolly [4, 14]: 85
Plant response rating, Cupgrass, Woolly [4, 16]: 100
Plant response rating, Cupgrass, Woolly [4, 15]: 100
Plant response rating, Bromegrass, Downy [5, 13]: 40
Plant response rating, Bromegrass, Downy [5, 14]: 40
Plant response rating, Bromegrass, Downy [5, 16]: 50
Plant response rating, Bromegrass, Downy [5, 15]: 60
Plant response rating, Wheat [6, 13]: 10
Plant response rating, Wheat [6, 14]: 30
Plant response rating, Wheat [6, 15]: 65
Plant response rating, Nutsedge, Yellow [7, 13]: 0
Plant response rating, Nutsedge, Yellow [7, 14]: 5
Plant response rating, Nutsedge, Yellow [7, 16]: 25
Plant response rating, Nutsedge, Yellow [7, 15]: 25
Plant response rating, Surinam Grass [8, 13]: 80
Plant response rating, Surinam Grass [8, 14]: 85
Plant response rating, Surinam Grass [8, 15]: 100
Plant response rating, Flood, Ducksalad [9]: 100
Plant response rating, Ducksalad [9, 18]: 100
Plant response rating, Flood, Barnyardgrass [10]: 65
Plant response rating, Barnyardgrass [10, 18]: 20
Plant response rating, Flood, Rice [11]: 50
Plant response rating, Rice [11, 18]: 25
Plant response rating, Flood, Sedge, Umbrella [12]: 85
Plant response rating, Sedge, Umbrella [12, 18]: 70

— patent US8952024B2, “Herbicidal pyrimidone derivatives” (E I du Pont de Nemours and Company, priority 2009, dated 2015)
